Results from ChEMBL document CHEMBL1201862, “PubChem BioAssay data set” (2004).
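Exposure lasted 48 hours, with cells grown in 96-well plates and compounds tested at five concentrations. Abbreviation: GI50, concentration required for 50% inhibition of growth.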 Active and inactive are the calls of the source. No stated cut-off is given here; in the data, active = GI50 up to about 1.1 µM and inactive = higher.

Legend:
Test in all cases: growth of human tumour cells (NCI), 48 h
[1] = tested on: MDA-MB-435
[2] = tested on: COLO 205
[3] = tested on: SK-OV-3
[4] = tested on: SK-MEL-5
[5] = tested on: RPMI-8226
[6] = tested on: 786-0
[7] = tested on: NCI-H460
[8] = tested on: HT-29
[9] = tested on: PC-3
[10] = tested on: MOLT-4
[11] = tested on: UACC-62
[12] = tested on: CCRF-CEM
[13] = tested on: NCI-H522
[14] = tested on: MDA-N
[15] = tested on: HL-60
[16] = tested on: SF-295
[17] = tested on: SK-MEL-28
[18] = tested on: T47D

Row | SMILES | GI50 [1] | GI50 [2] | GI50 [3] | GI50 [4] | GI50 [5] | GI50 [6] | GI50 [7] | GI50 [8] | GI50 [9] | GI50 [10] | GI50 [11] | GI50 [12] | GI50 [13] | GI50 [14] | GI50 [15] | GI50 [16] | GI50 [17] | GI50 [18]
1 | Cc1ccc2c(O)cc(-c3sccc3C)nc2n1 | 0.131 µM (active) | 0.37 µM (active) | 1.45 µM (inactive) | 0.266 µM (active) | 0.444 µM (active) | 0.711 µM (active) | 0.44 µM (active) | 1.33 µM (inactive) | 0.426 µM (active) | 0.486 µM (active) | 0.9 µM (active) | 0.635 µM (active) | 0.296 µM (active) | 0.106 µM (active) | 0.174 µM (active) | 0.497 µM (active) |  | 
2 | O=C1Nc2ccccc2C(=O)/C1=C/NC(=S)NCCc1ccccc1 | > 100 µM (inactive) | > 100 µM (inactive) | > 100 µM (inactive) | > 100 µM (inactive) |  | > 100 µM (inactive) | > 100 µM (inactive) | > 100 µM (inactive) | 98.4 µM (inactive) | 4.03 µM (inactive) | > 100 µM (inactive) |  |  | > 100 µM (inactive) | > 100 µM (inactive) | > 100 µM (inactive) | > 100 µM (inactive) | > 100 µM (inactive)
3 | C=C(Cl)/C(=C\Br)CCC(Cl)C(C)C.C=C(Cl)/C(=C\Cl)CCC(Cl)C(C)C (configuration not stated) | 15.3 µM (inactive) | 26.3 µM (inactive) | 22.8 µM (inactive) | 13.9 µM (inactive) |  | 15.3 µM (inactive) | 18.1 µM (inactive) | 17.7 µM (inactive) | 19.8 µM (inactive) | 6.52 µM (inactive) | 12.7 µM (inactive) | 5.62 µM (inactive) | 4.73 µM (inactive) | 15 µM (inactive) | 4.24 µM (inactive) | 18.8 µM (inactive) | 17.2 µM (inactive) | 
4 | O=C1Cc2c([nH]c3cc(Br)ccc23)-c2ccccc2N1 | 26.5 µM (inactive) | 19.2 µM (inactive) | 19.9 µM (inactive) | 16 µM (inactive) |  | 36 µM (inactive) | 15.5 µM (inactive) | 13.9 µM (inactive) | 3.56 µM (inactive) | 3.56 µM (inactive) | 12.6 µM (inactive) | 2.19 µM (inactive) | 15 µM (inactive) | 30.1 µM (inactive) | 58.2 µM (inactive) | 22.5 µM (inactive) | > 100 µM (inactive) | 10.9 µM (inactive)
5 | CCOP(=O)(OCC)C(Nc1ccc(C(=O)O)cc1)c1ccc(C(Nc2ccc(C(=O)O)cc2)P(=O)(OCC)OCC)cc1 (configuration not stated) | > 100 µM (inactive) | > 100 µM (inactive) | > 100 µM (inactive) | > 100 µM (inactive) | > 100 µM (inactive) | > 100 µM (inactive) | > 100 µM (inactive) | > 100 µM (inactive) | > 100 µM (inactive) | > 100 µM (inactive) | > 100 µM (inactive) | > 100 µM (inactive) | > 100 µM (inactive) |  |  | > 100 µM (inactive) | > 100 µM (inactive) | > 100 µM (inactive)
6 | O=C1CC2(CCC(O)(c3cccc4ccccc34)C(C(=O)c3cccc4ccccc34)C2)C(=O)c2ccccc2N1 (configuration not stated) | 72.6 µM (inactive) | 29.6 µM (inactive) | 46.3 µM (inactive) | 24.8 µM (inactive) |  |  | 7.78 µM (inactive) | 7.93 µM (inactive) | 91 µM (inactive) | 25.9 µM (inactive) | 81.5 µM (inactive) | > 10 µM (inactive) |  | 18.4 µM (inactive) | > 10 µM (inactive) | 12.6 µM (inactive) | 11.1 µM (inactive) | 34.5 µM (inactive)
7 | COC(=O)[C@H](Cc1ccccc1)NP(=O)(O)OCC1C=CC(n2cc(C)c(=O)[nH]c2=O)O1 (some centres not stated) | > 100 µM (inactive) | > 100 µM (inactive) | > 100 µM (inactive) | > 100 µM (inactive) | > 100 µM (inactive) | > 100 µM (inactive) | > 100 µM (inactive) | > 100 µM (inactive) | > 100 µM (inactive) | > 100 µM (inactive) | > 100 µM (inactive) | > 100 µM (inactive) | > 100 µM (inactive) |  | > 100 µM (inactive) | > 100 µM (inactive) |  | > 100 µM (inactive)
8 | O=c1cc(N2CCCC2)[nH]c(=O)n1-c1ccccc1 | > 100 µM (inactive) | > 100 µM (inactive) |  | > 100 µM (inactive) | > 100 µM (inactive) | > 100 µM (inactive) | > 100 µM (inactive) | > 100 µM (inactive) | > 100 µM (inactive) | > 100 µM (inactive) |  | > 100 µM (inactive) | > 100 µM (inactive) |  | > 100 µM (inactive) | > 100 µM (inactive) | > 100 µM (inactive) | 
9 | O=c1c2ccccc2ncn1COCc1ccccc1 | > 100 µM (inactive) | > 100 µM (inactive) | > 100 µM (inactive) | > 100 µM (inactive) |  | > 100 µM (inactive) |  | > 100 µM (inactive) |  | > 100 µM (inactive) | > 100 µM (inactive) | > 100 µM (inactive) |  |  | > 100 µM (inactive) | > 100 µM (inactive) | > 100 µM (inactive) | 
